Results reported in PubChem BioAssay AID2060617 (Molecular Pharmacology Branch, DTP, NCI, 2025).
pIC50: −log10 of the molar value.

Tested on: 485368-065-R4-J2-PDC spheroids with HUVEC/MSC, viability
Assay: Anticancer human tumor 485368-065-R4-J2-PDC patient-derived pancreatic carcinoma cell line growth inhibition [CLK]
Settings: for pIC50: curve of first compound; for viability, T/C: stronger effect = lower value
How it was run: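 Multi-cell-type spheroids combined patient-derived tumor cells with HUVEC endothelial cells and human mesenchymal stem cells. Paired agents were dosed in half-log steps down from about clinical Cmax, or from 10 microM where Cmax was unknown.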
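Note: spheroids exposed to compounds for seven days.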
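Throughout, for viability, T/C: 100% = DMSO vehicle control wells.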

## CC(C)CC(NC(=O)C(Cc1ccccc1)NC(=O)c1cnccn1)B(O)O (centres undefined) + CN1CCN(c2cc(C(=O)Nc3cc4cc(-c5cnn(C)c5)ccc4cn3)ccn2)CC1
Second compound 0.0316 µM
  pIC50: 8.16
Second compound 0.1 µM
  pIC50: 8.21
Second compound 0.316 µM
  pIC50: 8.63
Second compound 1 µM
  pIC50: > 9.02
Second compound 3.16 µM
  pIC50: > 9.02
Second compound 10 µM
  pIC50: > 9.02
Second compound 0.0316 µM, first compound 0.000949 µM
  viability, T/C: 93.5%
Second compound 0.0316 µM, first compound 0.003 µM
  viability, T/C: 118%
Second compound 0.0316 µM, first compound 0.00949 µM
  viability, T/C: 29.8%
Second compound 0.0316 µM, first compound 0.03 µM
  viability, T/C: 14.3%
Second compound 0.0316 µM, first compound 0.0949 µM
  viability, T/C: 8.25%
Second compound 0.0316 µM, first compound 0.3 µM
  viability, T/C: 4.1%
Second compound 0.1 µM, first compound 0.000949 µM
  viability, T/C: 102%
Second compound 0.1 µM, first compound 0.003 µM
  viability, T/C: 92.2%
Second compound 0.1 µM, first compound 0.00949 µM
  viability, T/C: 24.4%
Second compound 0.1 µM, first compound 0.03 µM
  viability, T/C: 14.3%
Second compound 0.1 µM, first compound 0.0949 µM
  viability, T/C: 7.86%
Second compound 0.1 µM, first compound 0.3 µM
  viability, T/C: 3.66%
Second compound 0.316 µM, first compound 0.000949 µM
  viability, T/C: 89.5%
Second compound 0.316 µM, first compound 0.003 µM
  viability, T/C: 39.8%
Second compound 0.316 µM, first compound 0.00949 µM
  viability, T/C: 14.8%
Second compound 0.316 µM, first compound 0.03 µM
  viability, T/C: 8.49%
Second compound 0.316 µM, first compound 0.0949 µM
  viability, T/C: 4.29%
Second compound 0.316 µM, first compound 0.3 µM
  viability, T/C: 2.89%
Second compound 1 µM, first compound 0.000949 µM
  viability, T/C: 1%
Second compound 1 µM, first compound 0.003 µM
  viability, T/C: 3.72%
Second compound 1 µM, first compound 0.00949 µM
  viability, T/C: 2.87%
Second compound 1 µM, first compound 0.03 µM
  viability, T/C: 1.87%
Second compound 1 µM, first compound 0.0949 µM
  viability, T/C: 3.57%
Second compound 1 µM, first compound 0.3 µM
  viability, T/C: 3.73%
Second compound 3.16 µM, first compound 0.000949 µM
  viability, T/C: 1.35%
Second compound 3.16 µM, first compound 0.003 µM
  viability, T/C: 4.02%
Second compound 3.16 µM, first compound 0.00949 µM
  viability, T/C: 3%
Second compound 3.16 µM, first compound 0.03 µM
  viability, T/C: 3.03%
Second compound 3.16 µM, first compound 0.0949 µM
  viability, T/C: 3.95%
Second compound 3.16 µM, first compound 0.3 µM
  viability, T/C: 4.37%
Second compound 10 µM, first compound 0.000949 µM
  viability, T/C: 1.26%
Second compound 10 µM, first compound 0.003 µM
  viability, T/C: 3.6%
Second compound 10 µM, first compound 0.00949 µM
  viability, T/C: 2.94%
Second compound 10 µM, first compound 0.03 µM
  viability, T/C: 1.87%
Second compound 10 µM, first compound 0.0949 µM
  viability, T/C: 2.33%
Second compound 10 µM, first compound 0.3 µM
  viability, T/C: 1.8%

## O=C(c1cc(Cc2n[nH]c(=O)c3ccccc23)ccc1F)N1CCN(C(=O)C2CC2)CC1 + CN1CCN(c2cc(C(=O)Nc3cc4cc(-c5cnn(C)c5)ccc4cn3)ccn2)CC1
Second compound 0.0316 µM
  pIC50: < 5.00
Second compound 0.1 µM
  pIC50: < 5.00
Second compound 0.316 µM
  pIC50: 5.05
Second compound 1 µM
  pIC50: > 7.50
Second compound 3.16 µM
  pIC50: > 7.50
Second compound 10 µM
  pIC50: > 7.50
Second compound 0.0316 µM, first compound 0.0316 µM
  viability, T/C: 92.6%
Second compound 0.0316 µM, first compound 0.1 µM
  viability, T/C: 111%
Second compound 0.0316 µM, first compound 0.316 µM
  viability, T/C: 106%
Second compound 0.0316 µM, first compound 1 µM
  viability, T/C: 110%
Second compound 0.0316 µM, first compound 3.16 µM
  viability, T/C: 105%
Second compound 0.0316 µM, first compound 10 µM
  viability, T/C: 82.6%
Second compound 0.1 µM, first compound 0.0316 µM
  viability, T/C: 107%
Second compound 0.1 µM, first compound 0.1 µM
  viability, T/C: 105%
Second compound 0.1 µM, first compound 0.316 µM
  viability, T/C: 105%
Second compound 0.1 µM, first compound 1 µM
  viability, T/C: 103%
Second compound 0.1 µM, first compound 3.16 µM
  viability, T/C: 105%
Second compound 0.1 µM, first compound 10 µM
  viability, T/C: 76%
Second compound 0.316 µM, first compound 0.0316 µM
  viability, T/C: 79%
Second compound 0.316 µM, first compound 0.1 µM
  viability, T/C: 79.9%
Second compound 0.316 µM, first compound 0.316 µM
  viability, T/C: 79.7%
Second compound 0.316 µM, first compound 1 µM
  viability, T/C: 81.1%
Second compound 0.316 µM, first compound 3.16 µM
  viability, T/C: 70.5%
Second compound 0.316 µM, first compound 10 µM
  viability, T/C: 47.5%
Second compound 1 µM, first compound 0.0316 µM
  viability, T/C: 1.08%
Second compound 1 µM, first compound 0.1 µM
  viability, T/C: 1.02%
Second compound 1 µM, first compound 0.316 µM
  viability, T/C: 1.67%
Second compound 1 µM, first compound 1 µM
  viability, T/C: 2.06%
Second compound 1 µM, first compound 3.16 µM
  viability, T/C: 2.06%
Second compound 1 µM, first compound 10 µM
  viability, T/C: 2.39%
Second compound 3.16 µM, first compound 0.0316 µM
  viability, T/C: 1.23%
Second compound 3.16 µM, first compound 0.1 µM
  viability, T/C: 1.3%
Second compound 3.16 µM, first compound 0.316 µM
  viability, T/C: 1.64%
Second compound 3.16 µM, first compound 1 µM
  viability, T/C: 2.47%
Second compound 3.16 µM, first compound 3.16 µM
  viability, T/C: 1.39%
Second compound 3.16 µM, first compound 10 µM
  viability, T/C: 3.02%
Second compound 10 µM, first compound 0.0316 µM
  viability, T/C: 1.53%
Second compound 10 µM, first compound 0.1 µM
  viability, T/C: 1.87%
Second compound 10 µM, first compound 0.316 µM
  viability, T/C: 2.81%
Second compound 10 µM, first compound 1 µM
  viability, T/C: 2.7%
Second compound 10 µM, first compound 3.16 µM
  viability, T/C: 2.29%
Second compound 10 µM, first compound 10 µM
  viability, T/C: 1.73%
